Holding throughout (assay type): cell-based, human
Assay [1] concerns PLK1 Thr210 phosphorylation in AsPC-1. The assay can be described thus: Western blot, phosphorylation of PLK1 at Thr210, nocodazole-synchronized cells. Particulars: 5 μM, 1 h, nocodazole 200 ng/mL. How it is done: (§1) Lysates were then assessed by Western blotting using the indicated antibodies. Representative blots of at least three independent experiments are shown. The percentage of phosphorylated PLCγ1 is calculated by normalization to the loading control GAPDH. […] The percentage of phosphorylated PLK1 is calculated by normalization to the loading control α-actinin. […] The percentage of phosphorylated Histone H3 is calculated by normalization to the loading control α-actinin.
(§2) Cells (300,000 per well) from different cell lines were seeded in six-well plates. The next day, five wells were stimulated with nocodazole 200 ng/mL for 24 h. […] To analyze the expression of phosphorylated PLCγ, cells were incubated overnight in serum-free culture media. […] Cells were then collected by scraping and lysed in cold radioimmunoprecipitation assay buffer (150 mM sodium chloride, 1.0% NP-40 or Triton X-100, 0.5% sodium deoxycholate, 0.1% sodium dodecyl sulphate, 50 mM Tris HCl, pH 8.0) supplemented with 1X Protease/Phosphatase Inhibitor Cocktail (100X stock, Sigma Aldrich, St. Louis, MO, USA). Lysates were sonicated at 4 °C and centrifuged at 10,000 g for 10 min at 4 °C. Supernatants were transferred in a 1.5 mL Eppendorf tube and protein concentrations were determined using the Direct Detect Assay-Free cards and the Direct Detect Spectrometer (Merck Millipore, Decantur, IL, USA). […]
A general note: Immunoblotting shows a protein as a band on a membrane.

Assay [2] concerns PLK1 Thr210 phosphorylation in HPAF-II. The assay is described as above. Particulars: 5 μM, 1 h, nocodazole 200 ng/mL. How it is done: as §1, §2
Assay [3] concerns phosphorylation of Aurora A at Thr288 in AsPC-1. Description: Western blot, Aurora A phosphorylation at Thr288, nocodazole-synchronized cells. Particulars: 10 µM, 1 h, nocodazole 200 ng/mL. As for the experimental part: (§3) Lysates were then assessed by Western blotting using the indicated antibodies. Representative blots of at least three independent experiments are shown. In all blots, Akt total (A,B) and α-actinin (C,D) were used as loading control. In (A,B) membranes incubated with pAkt (Thr308) were stripped and re-incubated with anti Akt. The percentage of phosphorylated Akt is calculated by normalization to the loading control total Akt. In (C,D) membranes incubated with pAurora (Thr288) were stripped and re-incubated with anti-Aurora A. The percentage of phosphorylated Aurora A is calculated by normalization to the loading control α-actinin.
(§4) Cells (300,000 per well) from different cell lines were seeded in six-well plates. The next day, five wells were stimulated with nocodazole 200 ng/mL for 24 h. […] To analyze the expression of phosphorylated PLCγ, cells were incubated overnight in serum-free culture media. […] Supernatants were transferred in a 1.5 mL Eppendorf tube and protein concentrations were determined using the Direct Detect Assay-Free cards and the Direct Detect Spectrometer (Merck Millipore, Decantur, IL, USA). […]

Assay [4] concerns phosphorylation of Aurora A at Thr288 in HPAF-II. The assay is described as above. Particulars: 10 µM, 1 h, nocodazole 200 ng/mL. How it is done:
as §3, §4

Assay [5] deals with PLCγ1 Tyr783 phosphorylation in AsPC-1. Description: Western blot, EGF-induced phosphorylation of PLCγ1 at Tyr783. Particulars: 5 μM, 30 min, then EGF 25 ng/mL 10 min. As for the experimental part: as §1
(§5) Cells (300,000 per well) from different cell lines were seeded in six-well plates. The next day, five wells were stimulated with nocodazole 200 ng/mL for 24 h. Then four wells were treated for 2 h with the inhibitors of interest. To analyze the expression of phosphorylated PLCγ, cells were incubated overnight in serum-free culture media. […] Cells were then collected by scraping and lysed in cold radioimmunoprecipitation assay buffer (150 mM sodium chloride, 1.0% NP-40 or Triton X-100, 0.5% sodium deoxycholate, 0.1% sodium dodecyl sulphate, 50 mM Tris HCl, pH 8.0) supplemented with 1X Protease/Phosphatase Inhibitor Cocktail (100X stock, Sigma Aldrich, St. Louis, MO, USA). […] Supernatants were transferred in a 1.5 mL Eppendorf tube and protein concentrations were determined using the Direct Detect Assay-Free cards and the Direct Detect Spectrometer (Merck Millipore, Decantur, IL, USA). […]

Assay [6] relates to phosphorylation of Akt at Thr308 in AsPC-1. The assay can be described thus: Western blot, FBS-induced phosphorylation of Akt at Thr308. Particulars: 5 μM, FBS 1 h. How it is done: as §3
(§6) Cells (300,000 per well) from different cell lines were seeded in six-well plates. The next day, five wells were stimulated with nocodazole 200 ng/mL for 24 h. Then four wells were treated for 2 h with the inhibitors of interest. To analyze the expression of phosphorylated PLCγ, cells were incubated overnight in serum-free culture media. […] Supernatants were transferred in a 1.5 mL Eppendorf tube and protein concentrations were determined using the Direct Detect Assay-Free cards and the Direct Detect Spectrometer (Merck Millipore, Decantur, IL, USA). […]

Assay [7] concerns phosphorylation of Akt at Thr308 in HPAF-II. The description is as above. Particulars: 5 μM, FBS 1 h. As for the experimental part:
as §3, §6

For assay [8], the system named is PLCγ1 Tyr783 phosphorylation in HPAF-II. Description: Western blot, EGF-induced phosphorylation of PLCγ1 at Tyr783. Particulars: 5 μM, 30 min, then EGF 25 ng/mL 10 min. As for the experimental part: as §1, §5

The values below come from publication PMC6896057, “Dual PDK1/Aurora Kinase A Inhibitors Reduce Pancreatic Cancer Cell Proliferation and Colony Formation” (Cancers, 2019).

Turning to `CCN1CCN(C(=O)Cc2ccc(Nc3ncc(F)c(Nc4ccc(C(=O)Nc5ccccc5Cl)cc4)n3)cc2)CC1` [Aur I], the “effect on phosphorylation of PLK1 at Thr210” value in assay [1] and in assay [2] was “reduction in the phosphorylation of PLK1” throughout. Further, the “effect on phosphorylation of Aurora A at Thr288” value in assay [3] and in assay [4] was “efficiently reduced” each time.
`CNc1nc(-c2ccc3c(N)n[nH]c3c2)cc(N2C[C@@H](C(=O)NC3CCCCC3)CC[C@H]2C)n1` [GSK2334470]: the “effect on EGF-induced activation of PLCγ1 (Tyr783)” value in assay [5] and in assay [8] was “strongly reduced” in each case. The “effect on FBS-induced phosphorylation of Akt at Thr308” value in assay [6] and in assay [7] was “efficiently reduced” each time.
